How the values were obtained:
Cathepsin S = Cathepsin S (Homo sapiens, UniProt P25774); test: Inhibition of recombinant human cathepsin S using Z-Phe-Arg-AMC as substrate incubated for 60 mins
[1] = target: T1, Replicase polyprotein 1ab (Severe acute respiratory syndrome coronavirus 2, UniProt P0DTD1)
SARS-CoV-2 [2] = test: microbe, parasite or virus in culture; details: Severe acute respiratory syndrome coronavirus 2, WK-521, Vero C1008
SARS-CoV-2 [3] = test: microbe, parasite or virus in culture; details: Severe acute respiratory syndrome coronavirus 2, JPN/TY/WK-521, VeroE6/TMPRSS2
SARS-CoV-2 [4] = test: microbe, parasite or virus in culture; details: Severe acute respiratory syndrome coronavirus 2, JPN/TY/WK-521, VeroE6/TMPRSS2, 24 h, read-out: INH
SARS-CoV-2 [5] = test: microbe, parasite or virus in culture; details: Severe acute respiratory syndrome coronavirus 2, JPN/TY/WK-521, VeroE6/TMPRSS2; remark: listed apart in the source
[6] = target: T1, Replicase polyprotein 1ab; remark: listed apart in the source
in vitro = details: male, human, plasma
[7] = Stability of compound in DMEM assessed as time required for 50% compound degradation at 100 uM incubated for 24 hrs by HPLC method
SARS-CoV-2 [8] = test: microbe, parasite or virus in culture; details: Severe acute respiratory syndrome coronavirus 2, JPN/TY/WK-521, VeroE6/TMPRSS2, 24 h, read-out: INH; remark: listed apart in the source
Procathepsin L = Procathepsin L (Homo sapiens, UniProt P07711); test: Inhibition of human cathepsin L using Z-Phe-Arg-pNA as substrate incubated for 60 mins
Chain of Procathepsin L (P07711 whole entry): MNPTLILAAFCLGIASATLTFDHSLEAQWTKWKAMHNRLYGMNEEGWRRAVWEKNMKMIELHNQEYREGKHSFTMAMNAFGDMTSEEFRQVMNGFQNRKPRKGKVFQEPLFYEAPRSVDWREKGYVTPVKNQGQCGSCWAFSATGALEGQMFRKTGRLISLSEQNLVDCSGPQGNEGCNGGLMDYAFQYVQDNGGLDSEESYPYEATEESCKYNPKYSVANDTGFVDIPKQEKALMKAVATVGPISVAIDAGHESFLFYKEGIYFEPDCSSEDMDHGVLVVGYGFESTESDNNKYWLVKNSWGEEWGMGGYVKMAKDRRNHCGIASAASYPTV

Chain of Cathepsin S (P25774 whole entry): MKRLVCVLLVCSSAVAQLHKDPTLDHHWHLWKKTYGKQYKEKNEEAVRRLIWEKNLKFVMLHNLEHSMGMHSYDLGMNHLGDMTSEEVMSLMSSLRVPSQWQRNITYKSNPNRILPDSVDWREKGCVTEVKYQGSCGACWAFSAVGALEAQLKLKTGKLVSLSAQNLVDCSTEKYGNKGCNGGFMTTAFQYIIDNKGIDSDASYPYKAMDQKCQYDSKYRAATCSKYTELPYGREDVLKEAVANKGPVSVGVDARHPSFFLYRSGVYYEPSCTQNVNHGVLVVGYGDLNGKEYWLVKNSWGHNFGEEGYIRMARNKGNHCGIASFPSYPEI

Row | SMILES | Ki (Cathepsin S) | IC50 [1] | Ki [6] | half-life at 100 µM (in vitro) | other results
1 | CN1C(=O)[C@H](CCc2ccccc2)NC(=O)COCCOc2ccc(F)cc2CN1C#N | 179 nM | 1470 nM | – | – | –
2 | CC(C)(C)[C@H](NC(=O)C(F)(F)F)C(=O)N1C[C@H]2[C@@H]([C@H]1C(=O)N[C@H](C#N)C[C@@H]1CCNC1=O)C2(C)C | – | – | – | – | IC50 (SARS-CoV-2 [2]): 940 nM; IC50 (SARS-CoV-2 [3]): 160 nM; inhibition at 3.33 µM (SARS-CoV-2 [4]): 93%; EC50 (SARS-CoV-2 [5]): 860 nM
3 | CN1C(=O)[C@H](Cc2ccccc2)N(C(=O)[C@@H](NC(=O)c2cccs2)C(C)(C)C)CCCOc2ccc(Cl)c(F)c2CN1C#N | 3020 nM | – | – | – | –
4 | CN1C(=O)[C@H](Cc2ccccc2)N(C(=O)CNC(=O)c2cccs2)CCCOc2c(Cl)cccc2CN1C#N | 470 nM | 3 nM | 2.29 nM | 3 h | inhibition at 3.33 µM (SARS-CoV-2 [4]): 63%; half-life at 24 h, 100 µM [7]: 7.65 h; EC50 (SARS-CoV-2 [5]): 2550 nM
5 | COc1ccc([C@@H]2Sc3ccccc3N(CCN(C)C)C(=O)[C@@H]2OC(C)=O)cc1.Cl [DILTIAZEM HYDROCHLORIDE] | – | – | – | 13.1 h | –
6 | CN1C(=O)[C@H](Cc2ccccc2)N(C(=O)COc2ccc(Cl)cc2Cl)CCCOc2c(Cl)cccc2CN1C#N | – | 38 nM | 26.8 nM | 1.92 h | half-life at 24 h, 100 µM [7]: 1.76 h; inhibition at […] (SARS-CoV-2 [8]): 58%; EC50 (SARS-CoV-2 [5]): 2140 nM
7 | CN1C(=O)[C@H](Cc2ccccc2)NC(=O)COCCOCCOc2ccc(F)cc2CN1C#N | 765 nM | 2610 nM | – | – | –
8 | CN(C(=O)[C@H](Cc1ccccc1)NC(=O)[C@@H](NC(=O)C1CCCC1)C(C)(C)C)N(C#N)Cc1ccc(Cl)cc1 | – | 32 nM | 23 nM | – | Ki (Procathepsin L): 344 nM
9 | CN1C(=O)[C@H](Cc2ccccc2)N(C(=O)COc2ccc(Cl)cc2Cl)CCCOc2ccc(Cl)c(F)c2CN1C#N | 1820 nM | 57 nM | – | – | –
10 | CN1C(=O)[C@H](CCc2ccccc2)NC(=O)COCCOCCOc2ccc(F)cc2CN1C#N | 662 nM | – | – | – | –
11 | CN(C(=O)[C@H](Cc1ccccc1)NC(=O)[C@@H](NC(=O)c1cccs1)C(C)(C)C)N(C#N)Cc1ccc(Cl)cc1 | – | 19 nM | 13.3 nM | – | Ki (Procathepsin L): 179 nM
12 | CCN(CC)CCOC(=O)c1ccc(N)cc1.Cl [PROCAINE HYDROCHLORIDE] | – | – | – | 0.103 h | –
